Source: US10343997B1, “Ursolic acid derivatives” (KING SAUD UNIVERSITY, priority 2018, dated 2019)

Columns and labels:
[1] = test system: rat isolated aorta; assay: Relaxation of potassium-induced contraction of rat isolated aorta; type: cell-based; settings: rat isolated aorta pre-contracted with 40 mM KCl; means ± s.e., n = 6; read-out: pIC50 (−log IC50) for relaxation of potassium-induced contraction (converted)
Experimental: Six white male rats were killed by a blow on the head and decapitation. The thoracic aorta of each rat was isolated, carefully dissected from the surrounding tissues, and cut into 5 segments, 3 mm in length. The segments were joined together, suspended in Krebs solution (composition in mmol: NaCl 118, KCl 4.8, CaCl2, 2.5, KH2PO4 1.2, MgSO4 1.2, NaHCO3 25 and glucose 10) at 37° C. and oxygenated with 95% O2 and 5% CO2. The fluid of the organ bath was changed every 15 min. The tissue was subject to a resting tension of 1 g and left to equilibrate for 1 h. The contractions of isolated aortic rings were recorded by means of a force transducer and Beckman physiograph. […] The pre-contracted tissue was then subject to increasing amounts of one of the calcium channel blockers added to the organ bath. The pIC50 value of each compound was calculated from concentration-response curves.

[2] = test system: guinea-pig ileum; assay: Calcium-induced contraction in K+-depolarized guinea-pig ileum; type: cell-based; settings: 2×10^−9 M of compound; for Emax at 0.002 µM: Cavia porcellus, contraction induced by 3 mM calcium, 84.44% without antagonist, read-out: calcium-induced contractions, % of the maximum response
Experimental: (§1) Male guinea-pigs, weighing between 200-400 g, were killed by a blow on the head after previously being deprived of food for 18 h but having had free access to water. The non-terminal part of the ileum was removed and cut into 20-mm long segments, which were suspended in an organ bath and connected to an isotonic transducer. The organ bath contained 50 mL physiological solution oxygenated with 95% O2 and 5% […] at 37° C. The physiological solution was typically normal saline with 0.9% sodium chloride. The fluid of the organ bath was changed every 15 min. The ileal segments were subjected to a resting tension of 0.5-1 g and left to equilibrate for 60 min.
As a control, increasing concentrations of CaCl2 (0.1, 0.3, 1, 3, 10 mmol) were added to an organ bath and the contractile response of the ileum was recorded. Tissues were then preincubated for 15-20 min with one concentration of each calcium channel blocker and increasing concentrations of CaCl2 were again added to the bathing media.
Response percentage ratios were calculated by dividing the percent of maximum responses induced by 3 mM calcium in the presence of each calcium-channel blocker at a concentration of 2×10^−9 M by the percent of maximum response induced by 3 mM calcium in the absence of any calcium-channel blocker.

[3] = test system: guinea-pig isolated ileum; assay: Relaxation of electrically induced contraction of guinea-pig isolated ileum; type: cell-based; settings: Cavia porcellus, stimulation 25V, 0.1 Hz, 5 ms, means ± s.e., n = 6, read-out: pIC50 (−log IC50) for relaxation of electrically induced contraction (converted)
Experimental: as §1
Each segment was treated with only one compound. The pIC50 (−log IC50) value of each compound was calculated from concentration-response curves.

[4] = test system: pithed rat; assay: In vivo evaluation of calcium blockade in the pithed rat (cardio accelerator response)
Experimental: Calcium blockers in the pithed rat were calculated in vivo.
Male Sprague-Dawley rats (250-350 g) were anaesthetized with methohexitone sodium (50 mg/kg, intraperitoneal injection). Following cannulation of the trachea, the rats were pithed through one orbit with a stainless steel rod and immediately artificially respired with room air (78 strokes/min, 1 mil/100 g body weight) via a Palmer small animal respiration pump. A jugular vein was cannulated for administration of drugs. Arterial blood pressure was recorded from a carotid artery using a pressure transducer.
Heart rate was derived from the phasic arterial pressure signal with a phase lock loop ratemeter (BRL Instrument Services). […] The animals were kept warm by an incandescent lamp positioned about 25 cm above them. The pithing rod was withdrawn until the tip reached the thoracic portion of the spinal cord. All rats then received (+)tubocurarine (1.5 mg/kg, intravenously) and were bilaterally vagotomized.
The cardio accelerator response was obtained by continuous electrical stimulation of the thoracic spinal cord with square wave pulses of 0.5 ms duration, at supramaximal voltage at a frequency of 0.5 Hz using the pithing rod as a stimulating electrode. An indifferent electrode was inserted subcutaneously in the femoral region. Only rats with a resulting tachycardia of more than 100 beats/min were included in the experiments. When the cardio accelerator response was stabilized for about 3-5 min, cumulative intravenous doses of test drug or corresponding vehicle were administered. Successive doses were given when the response to the previous dose stabilized.
Doses of β-blockers or calcium-antagonists, which reduce the tachycardia to 50%, were tested again. Three minutes after administration of the drug, calcium gluconate (1 mg/min) or water (0.1 ml/min) was infused using a Harvard apparatus compact infusion pump.
The level of tachycardia immediately prior to drug administration was taken as 100% and responses to drugs were calculated as a percentage of the predose tachycardia. […] Significance of differences between the groups receiving calcium gluconate and their parallel vehicle controls were calculated by a Student's t-test.

[5] = target: voltage-dependent calcium channel; assay: In vitro 3H-nitrendipine binding assay; settings: competition with 3H-nitrendipine, plasma membrane from bovine cerebral cortices
[6] = test system: cardiac function; settings: background statement; cited from earlier work

SMILES: COC(=O)C1=C(C)NC(C)=C(OC(C)=O)C1[C@]12CC[C@@H](C)[C@H](C)[C@H]1C1=CC[C@@H]3[C@@]4(C)CC[C@H](OC)C(C)(C)C4CC[C@@]3(C)[C@]1(C)CC2 (stereo partly shown) [Compound 4, Dihydropyridine-3,5-dicarboxylate Ursolic Acid Derivative]
- IC50 [1]: 0.0174 nM
- Response percentage ratio ([2]; 3 mM calcium, response with blocker divided by response without): 0.15 ± 0.009
- Emax at 0.002 µM [2]: 27%
- IC50 [3]: 0.347 nM
- ID50 ([4]; inhibition of electrically induced tachycardia, cumulative intravenous doses): 71620 nM
- calcium channel blocker selectivity in pithed rat assay ([4]; result in words): selective calcium channel blocker
- The affinity constant Ki [5]: 3.1 × 10^−13 mol/1

SMILES: COC(=O)C1=C(C)NC(C)=C(C(=O)OC)C1c1ccccc1[N+](=O)[O-] [Nifedipine, reference compound]
- IC50 [1]: 5.13 nM
- Emax at 0.002 µM [2]: 74%
- IC50 [3]: 35.5 nM

SMILES: CCN(CC)CC(=O)Nc1c(C)cccc1C [lignocaine, reference compound]
- effect on tachycardia elicited by electrical stimulation of the spinal cord ([4]; result in words): no effect

SMILES: O=C(NCCO[N+](=O)[O-])c1cccnc1 [nicorandil, reference compound]
- effect on tachycardia elicited by electrical stimulation of the spinal cord ([4]; result in words): no effect

SMILES: C[C@H]1[C@H](C)CC[C@]2(C(=O)O)CC[C@]3(C)C(=CC[C@@H]4[C@@]5(C)CC[C@H](O)C(C)(C)[C@@H]5CC[C@]43C)[C@H]12 [ursolic acid]
- heart rate decrease [6]: 32%
